Common to all, as to format: biochemical
In assay [1] the target is TYK2 (Homo sapiens, UniProt P29597). Briefly: TYK2 kinase inhibition (Table A1).
Assay [2] concerns the target T1, human JAK1 (a.a. 837-1142) (Homo sapiens, UniProt P23458).
T1 construct: human JAK1 (a.a. 837-1142); His tag (N); made in house; host or cells: insect cells (baculovirus)
Briefly: In vitro JAK kinase assay (HTRF, phosphorylation of a biotinylated peptide), JAK1. As to conditions: read-out: JAK1 IC50. The essentials:
(§1)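 Kinase reactions ran at room temperature for 1 h with ATP matched per isoform (JAK1 90 μM, JAK2 30 μM, JAK3 3 μM). After an EDTA stop, the phosphorylated biotin-peptide was read by HTRF using Eu-Py20 and SA-APC after 40 min binding.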
(In general: TR-FRET usually uses a lanthanide donor and a delayed reading to cut background.)

Assay [3] concerns the target T2, Recombinant Human Anaplastic Lymphoma Kinase (Homo sapiens, UniProt Q9UM73).
T2 construct: purchased Invitrogen, Carlsbad, Calif
The experiment in a line: ALK HTRF kinase assay. The essentials:
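TR-FRET read-out (Eu anti-pTyr antibody + streptavidin-APC) of biotin-peptide phosphorylation by recombinant human enzyme; IC50 by sigmoidal fit with top/bottom baselines and Hill slope.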

Assay [4] has as its target T3, human JAK3 (a.a. 781-1124) (Homo sapiens, UniProt P52333).
T3 construct: JAK3 (a.a. 781-1124); His tag (N); made in house; host or cells: insect cells (baculovirus)
The experiment in a line: In vitro JAK kinase assay (HTRF, phosphorylation of a biotinylated peptide), JAK3. The essentials:
as §1

For assay [5], the target named is T4, human JAK2 (a.a. 828-1132) (Homo sapiens, UniProt O60674).
T4 construct: JAK2 (a.a. 828-1132); His tag (N); made in house; host or cells: insect cells (baculovirus)
T4 sequence (O60674 828-1132): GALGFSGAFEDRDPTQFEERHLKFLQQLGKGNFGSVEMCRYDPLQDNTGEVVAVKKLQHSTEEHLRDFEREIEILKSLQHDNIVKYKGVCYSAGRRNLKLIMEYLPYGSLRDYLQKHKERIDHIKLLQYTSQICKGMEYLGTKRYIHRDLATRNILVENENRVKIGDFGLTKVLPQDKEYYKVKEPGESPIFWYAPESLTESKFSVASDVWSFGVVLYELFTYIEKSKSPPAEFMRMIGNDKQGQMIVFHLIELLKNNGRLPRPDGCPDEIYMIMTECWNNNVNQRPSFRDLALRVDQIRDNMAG
Briefly: In vitro JAK kinase assay (HTRF, phosphorylation of a biotinylated peptide), JAK2. The essentials:
as §1

Setting [6] is: method AA1 (90 μM ATP) or AA2 (1000 μM ATP), not stated per value.
Where [7] appears, read: compound at 500 nM or 1 mM, 90 μM ATP.
Where [8] appears, read: method AA1 (3 μM ATP) or AA2 (1000 μM ATP), not stated per value.
The mark [9] stands for this setting: method AA1 (30 μM ATP) or AA2 (1000 μM ATP), not stated per value.
Setting [10] is: compound at a concentration of 500 nM or 1 mM (not specified), cells shown as percentage.
[11] abbreviates: percentage inhibition of the example compound at a concentration of 500 nM or 1 mM (not specified which).
Where [12] appears, read: Table B1, cells without percent sign.

Counter-ions that a name gives are not always drawn. Like-named read-outs stand apart in the source and are kept apart here.

Consider 14 compounds from patent publication US8871753B2, “Macrocyclic compounds and their use as kinase inhibitors” (Incyte Corporation, priority 2008, dated 2014).

T1 sequence (P23458 849-1154): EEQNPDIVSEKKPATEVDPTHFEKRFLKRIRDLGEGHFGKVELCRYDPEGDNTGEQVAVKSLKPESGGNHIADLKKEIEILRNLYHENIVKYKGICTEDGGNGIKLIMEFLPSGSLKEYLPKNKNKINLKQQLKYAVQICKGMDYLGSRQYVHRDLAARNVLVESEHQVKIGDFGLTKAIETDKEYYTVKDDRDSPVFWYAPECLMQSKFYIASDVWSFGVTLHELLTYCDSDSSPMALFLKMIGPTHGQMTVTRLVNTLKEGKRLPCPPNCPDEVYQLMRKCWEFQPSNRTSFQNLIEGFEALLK
T2 sequence (Q9UM73 19-1620): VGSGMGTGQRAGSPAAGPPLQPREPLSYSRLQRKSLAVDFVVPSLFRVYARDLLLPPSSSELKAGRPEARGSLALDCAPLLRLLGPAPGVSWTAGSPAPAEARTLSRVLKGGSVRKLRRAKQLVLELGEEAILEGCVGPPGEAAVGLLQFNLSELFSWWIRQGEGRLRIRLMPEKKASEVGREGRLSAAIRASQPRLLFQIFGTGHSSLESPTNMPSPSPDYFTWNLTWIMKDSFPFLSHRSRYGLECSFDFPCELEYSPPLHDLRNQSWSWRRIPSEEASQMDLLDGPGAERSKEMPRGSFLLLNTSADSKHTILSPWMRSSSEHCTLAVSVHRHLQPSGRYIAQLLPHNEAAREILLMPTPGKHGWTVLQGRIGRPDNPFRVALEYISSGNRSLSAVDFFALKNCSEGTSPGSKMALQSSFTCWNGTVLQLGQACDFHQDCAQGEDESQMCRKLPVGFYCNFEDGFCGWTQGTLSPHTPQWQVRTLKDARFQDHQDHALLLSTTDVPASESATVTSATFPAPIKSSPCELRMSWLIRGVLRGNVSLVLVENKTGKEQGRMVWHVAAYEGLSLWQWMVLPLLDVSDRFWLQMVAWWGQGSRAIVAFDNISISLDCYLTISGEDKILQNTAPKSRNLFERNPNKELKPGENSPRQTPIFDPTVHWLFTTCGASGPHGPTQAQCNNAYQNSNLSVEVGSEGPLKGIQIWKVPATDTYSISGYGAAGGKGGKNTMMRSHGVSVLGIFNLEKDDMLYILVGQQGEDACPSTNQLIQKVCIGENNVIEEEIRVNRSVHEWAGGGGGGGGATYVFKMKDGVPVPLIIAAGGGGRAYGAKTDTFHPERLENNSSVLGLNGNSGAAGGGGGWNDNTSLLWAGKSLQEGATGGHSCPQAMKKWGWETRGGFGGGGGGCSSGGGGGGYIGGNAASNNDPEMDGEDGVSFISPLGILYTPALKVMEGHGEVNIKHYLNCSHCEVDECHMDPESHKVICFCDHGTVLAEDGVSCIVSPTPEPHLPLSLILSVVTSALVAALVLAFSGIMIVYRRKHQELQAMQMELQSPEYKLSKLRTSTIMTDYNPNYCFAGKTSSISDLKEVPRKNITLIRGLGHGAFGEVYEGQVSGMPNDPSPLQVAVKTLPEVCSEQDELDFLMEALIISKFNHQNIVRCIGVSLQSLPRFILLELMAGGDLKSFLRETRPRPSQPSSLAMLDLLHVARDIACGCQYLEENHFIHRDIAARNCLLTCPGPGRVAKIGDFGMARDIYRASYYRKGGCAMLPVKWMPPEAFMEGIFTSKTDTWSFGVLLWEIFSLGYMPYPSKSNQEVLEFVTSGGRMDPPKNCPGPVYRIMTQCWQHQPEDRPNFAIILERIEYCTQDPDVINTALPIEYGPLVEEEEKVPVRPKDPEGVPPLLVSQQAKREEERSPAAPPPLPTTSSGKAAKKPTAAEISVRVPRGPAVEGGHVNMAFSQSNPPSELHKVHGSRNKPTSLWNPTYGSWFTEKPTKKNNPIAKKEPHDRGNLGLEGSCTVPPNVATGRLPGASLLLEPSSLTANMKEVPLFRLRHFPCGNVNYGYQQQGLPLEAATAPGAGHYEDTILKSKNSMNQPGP
T3 sequence (P52333 781-1124): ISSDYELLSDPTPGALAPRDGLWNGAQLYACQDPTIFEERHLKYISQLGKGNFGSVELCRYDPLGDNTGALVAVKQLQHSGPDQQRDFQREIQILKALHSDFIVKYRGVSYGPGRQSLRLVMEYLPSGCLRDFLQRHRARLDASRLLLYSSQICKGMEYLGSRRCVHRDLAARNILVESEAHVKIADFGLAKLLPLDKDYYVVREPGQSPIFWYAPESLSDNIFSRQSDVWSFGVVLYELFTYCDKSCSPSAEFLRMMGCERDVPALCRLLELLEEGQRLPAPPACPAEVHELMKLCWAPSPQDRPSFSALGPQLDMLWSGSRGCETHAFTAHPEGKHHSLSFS
TYK2, sequence (P29597 whole entry): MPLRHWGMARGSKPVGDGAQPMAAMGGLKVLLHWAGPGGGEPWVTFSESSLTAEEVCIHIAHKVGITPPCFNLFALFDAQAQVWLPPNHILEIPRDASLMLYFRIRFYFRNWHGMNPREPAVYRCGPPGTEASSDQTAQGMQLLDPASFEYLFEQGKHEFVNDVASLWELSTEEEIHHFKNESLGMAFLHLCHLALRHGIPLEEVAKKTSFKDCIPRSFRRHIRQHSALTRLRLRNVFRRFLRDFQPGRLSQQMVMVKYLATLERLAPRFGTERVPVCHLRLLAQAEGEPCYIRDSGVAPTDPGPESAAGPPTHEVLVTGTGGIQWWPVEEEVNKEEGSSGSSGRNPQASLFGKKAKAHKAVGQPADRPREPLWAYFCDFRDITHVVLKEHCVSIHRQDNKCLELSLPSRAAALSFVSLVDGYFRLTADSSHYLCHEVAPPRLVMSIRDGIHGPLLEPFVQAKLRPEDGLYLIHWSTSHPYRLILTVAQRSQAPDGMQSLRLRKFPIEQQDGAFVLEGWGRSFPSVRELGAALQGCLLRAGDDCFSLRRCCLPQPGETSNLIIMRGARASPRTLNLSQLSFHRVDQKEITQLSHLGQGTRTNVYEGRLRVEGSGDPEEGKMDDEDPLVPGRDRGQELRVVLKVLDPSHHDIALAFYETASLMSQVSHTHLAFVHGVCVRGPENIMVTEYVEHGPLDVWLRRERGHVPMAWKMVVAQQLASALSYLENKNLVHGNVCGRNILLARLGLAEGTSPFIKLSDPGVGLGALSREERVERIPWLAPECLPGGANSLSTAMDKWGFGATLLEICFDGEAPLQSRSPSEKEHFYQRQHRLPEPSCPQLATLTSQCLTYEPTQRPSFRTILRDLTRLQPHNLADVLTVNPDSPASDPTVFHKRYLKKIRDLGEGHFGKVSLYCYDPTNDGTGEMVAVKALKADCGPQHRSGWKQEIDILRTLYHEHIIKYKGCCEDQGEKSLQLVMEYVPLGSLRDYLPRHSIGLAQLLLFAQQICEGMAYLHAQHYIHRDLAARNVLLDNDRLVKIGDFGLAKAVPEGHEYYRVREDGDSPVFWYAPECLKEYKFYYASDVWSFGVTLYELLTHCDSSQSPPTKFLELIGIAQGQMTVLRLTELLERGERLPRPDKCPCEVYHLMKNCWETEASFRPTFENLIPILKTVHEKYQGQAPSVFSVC

By IC50 is commonly meant the concentration at which inhibition is half-maximal. `N[C@@H](CO)C(=O)Nc1ccc2cc1CCc1cccc(c1)Nc1ncc(Cl)c(n1)N2` [Example A109, (2S)-2-Amino-N-[6-chloro-2,4,8,22-tetraazatetracyclo[14.3.1.1(3,7).1(9,13)]docosa-1(20),3(22),4,6,9(21),10,12,16,18-nonaen-12-yl]-3-hydroxypropanamide bis(trifluoroacetate)]: the IC50 in assay [1] was found to be 7.5 nM; in assay [2] (setting [6]) it was 5 nM; in assay [4] (setting [8]) it was 7.3 nM; in assay [5] (setting [9]), 11 nM. Also, the “ALK % of inhibition at a concentration of 500 nM or 1 mM” value (“ALK % of inhibition” for short) in assay [3] (setting [7]) came to 33%.

For `O=C(Nc1ccc2cc1CCc1cccc(c1)Nc1ncc(Cl)c(n1)N2)N[C@H]1CCN(C(=O)c2nccs2)C1` [Example B231, N-[6-Chloro-2,4,8,22-tetraazatetracyclo[14.3.1.1(3,7).1(9,13)]docosa-1(20),3(22),4,6,9(21),10,12,16,18-nonaen-12-yl]-N′-[(3S)-1-(1,3-thiazol-2-ylcarbonyl)pyrrolidin-3-yl]urea trifluoroacetate], the half-inhibitory concentration (IC50) in assay [1] (Table B1) was 16 nM; in assay [2] (Table B1), 4 nM; in assay [4] (Table B1) it was 65 nM; in assay [5] (Table B1), 5.5 nM. For the same compound, the “ALK % of inhibition” value in assay [3] (setting [10]) amounted to 8.1%.

Consider `O=C(Nc1cc2cc(c1)OCCSc1cccc(c1)Nc1nc(ncc1Cl)N2)c1ccccc1` [Example D57, N-[6-Chloro-17-oxa-14-thia-2,4,8,24-tetraazatetracyclo[16.3.1.1(3,7).1(9,13)]tetracosa-1(22),3(24),4,6,9(23),10,12,18,20-nonaen-20-yl]benzamide trifluoroacetate], for which the IC50 in assay [1] (Table D1) turned out to be 7.4 nM; in assay [2] (Table D1), 11 nM; in assay [3] (Table D1, 90 μM ATP), 430 nM; in assay [4] (Table D1), 21 nM; in assay [5] (Table D1), 2.3 nM.

As to `CN(Cc1ccc2cc1CCc1cncc(c1)Nc1ncc(Cl)c(n1)N2)CC1CCN(C(=O)c2ccno2)CC1` [Example B345, 1-[6-Chloro-2,4,8,18,22-pentaazatetracyclo[14.3.1.1(3,7).1(9,13)]docosa-1(20),3(22),4,6,9(21),10,12,16,18-nonaen-12-yl]-N-{[1-(isoxazol-5-ylcarbonyl)piperidin-4-yl]methyl}-N-methylmethanamine tris(trifluoroacetate)], the half-inhibitory concentration (IC50) in assay [1] (Table B1) is 98 nM; in assay [2] (Table B1), 17 nM; in assay [4] (Table B1) it was above 400 nM; in assay [5] (Table B1) it was 179 nM. In addition, the “ALK % of inhibition” value in assay [3] (setting [11]) was found to be 40%.

As to `O=C(Nc1ccc2cc1CCc1cccc(c1)Nc1ncc(Cl)c(n1)N2)c1cccc(F)c1` [Example B48, N-[6-Chloro-2,4,8,22-tetraazatetracyclo[14.3.1.1(3,7).1(9,13)]docosa-1(20), 3(22),4,6,9(21),10,12,16,18-nonaen-12-yl]-3-fluorobenzamide trifluoroacetate], the 50% inhibitory concentration (IC50) in assay [1] (Table B1) was 1.7 nM; in assay [2] (Table B1) it was 0.96 nM; in assay [3] (setting [12]), 160 nM; in assay [4] (Table B1), 2.6 nM; in assay [5] (Table B1), 0.44 nM.

Consider `O=C(Nc1ccc(Cl)nc1)Nc1ccc2cc1CCc1cccc(c1)Nc1ncc(Cl)c(n1)N2` [Example B121, N-(6-Chloropyridin-3-yl)-N′-[6-chloro-2,4,8,22-tetraazatetracyclo[14.3.1.1(3,7).1(9,13)]docosa-1(20),3(22),4,6,9(21),10,12,16,18-nonaen-12-yl]urea bis(trifluoroacetate)], for which the IC50 in assay [1] (Table B1) came to 19 nM; in assay [2] (Table B1), 2.2 nM; in assay [4] (Table B1), 50 nM; in assay [5] (Table B1), 7.9 nM. For the same compound, the “ALK % of inhibition” value in assay [3] (setting [10]) was 39%.

With `Nc1ccc2cc1CCc1cccc(c1)Nc1ncc(Cl)c(n1)N2` [Example B19, 6-Chloro-2,4,8,22-tetraazatetracyclo[14.3.1.1(3,7).1(9,13)]docosa-1(20),3(22),4,6,9(21),10,12,16,18-nonaen-12-amine dihydrochloride], the concentration for half-maximal inhibition (IC50) worked out at 2.5 nM in assay [1] (Table B1); 1.3 nM in assay [2] (Table B1); 610 nM in assay [3] (setting [12]); 7.5 nM in assay [4] (Table B1); 0.97 nM in assay [5] (Table B1).

With `Cc1cc(C(=O)N2CCC(CC(=O)Nc3ccc4cc3CCc3cncc(c3)Nc3ncc(Cl)c(n3)N4)CC2)n[nH]1` [Example A163, N-[6-Chloro-2,4,8,18,22-pentaazatetracyclo[14.3.1.1(3,7).1(9,13)]docosa-1(20),3(22),4,6,9(21),10,12,16,18-nonaen-12-yl]-2-{1-[(5-methyl-1H-pyrazol-3-yl)carbonyl]piperidin-4-yl}acetamide bis(trifluoroacetate)], the half-maximal inhibitory concentration (IC50) in assay [1] was 3 nM; in assay [2] (setting [6]) it was 0.5 nM; in assay [4] (setting [8]) it was above 100 nM; in assay [5] (setting [9]), 36 nM. In assay [3] (setting [7]), the “ALK % of inhibition” value was found to be 29%.

On to `N#CCC(=O)N1CCC(CC(=O)Nc2ccc3cc2CCc2cncc(c2)Nc2ncc(Cl)c(n2)N3)CC1` [Example A245, N-[6-Chloro-2,4,8,18,22-pentaazatetracyclo[14.3.1.1(3,7).1(9,13)]docosa-1(20),3(22),4,6,9(21),10,12,16,18-nonaen-12-yl]-2-[1-(cyanoacetyl)piperidin-4-yl]acetamide bis(trifluoroacetate)], for which the IC50 in assay [1] was 41 nM; in assay [2] (setting [6]), 3.2 nM; in assay [4] (setting [8]) it was above 400 nM; in assay [5] (setting [9]), 117 nM. Further, the “ALK % of inhibition” value in assay [3] (setting [7]) was found to be 47%.

`Cc1cc(C(=O)N2CCC(C(=O)N(C)Cc3ccc4cc3CCc3cncc(c3)Nc3ncc(Cl)c(n3)N4)CC2)no1` [Example B335, N-{[6-Chloro-2,4,8,18,22-pentaazatetracyclo[14.3.1.1(3,7).1(9,13)]docosa-1(20),3(22),4,6,9(21),10,12,16,18-nonaen-12-yl]methyl}-N-methyl-1-[(5-methylisoxazol-3-yl)carbonyl]piperidine-4-carboxamide bis(trifluoroacetate)]: the half-inhibitory concentration (IC50) is above 200 nM in assay [1] (Table B1), 45 nM in assay [2] (Table B1), above 200 nM in assay [4] (Table B1) and 77 nM in assay [5] (Table B1). In addition, in assay [3] (setting [11]), the “ALK % of inhibition” value was determined as 18%.

As for `Brc1cnc2nc1Nc1cccc(c1)CCc1cccc(c1)N2` [Example B3, 6-Bromo-2,4,8,22-tetraazatetracyclo[14.3.1.1(3,7).1(9,13)]docosa-1(20),3(22),4,6,9(21),10,12,16,18-nonaene trifluoroacetate], the IC50 in assay [1] (Table B1) stood at 15 nM; in assay [2] (Table B1), 9.2 nM; in assay [3] (setting [12]), 976 nM; in assay [4] (Table B1) it was 67 nM; in assay [5] (Table B1), 3.5 nM.

As to `COc1ccccc1N1CCN(C(=O)Nc2ccc3cc2CCc2cncc(c2)Nc2ncc(Cl)c(n2)N3)CC1` [Example B298, N-[6-Chloro-2,4,8,18,22-pentaazatetracyclo[14.3.1.1(3,7).1(9,13)]docosa-1(20),3(22),4,6,9(21),10,12,16,18-nonaen-12-yl]-4-(2-methoxyphenyl)piperazine-1-carboxamide tris(trifluoroacetate)], the IC50 is 208 nM in assay [1] (Table B1), 29 nM in assay [2] (Table B1), above 400 nM in assay [4] (Table B1) and 341 nM in assay [5] (Table B1). The “ALK % of inhibition” value in assay [3] (setting [10]) stood at 62%.

For `Fc1ccc(CN2CCN(Cc3cc4cc(c3)Nc3nc(ncc3Cl)Nc3cccc(c3)CC4)CC2)cc1` [Example B192, 6-Chloro-11-{[4-(4-fluorobenzyl)piperazin-1-yl]methyl}-2,4,8,22-tetraazatetracyclo[14.3.1.1(3,7).1(9,13)]docosa-1(20),3(22),4,6,9(21),10,12,16,18-nonaene tris(trifluoroacetate)], the 50% inhibitory concentration (IC50) in assay [1] (Table B1) is 341 nM; in assay [2] (Table B1), 21 nM; in assay [3] (setting [12]), above 1000 nM; in assay [4] (Table B1) it was 308 nM; in assay [5] (Table B1) it was 23 nM.

On to `O=C(Nc1ccc2cc1CCc1cccc(c1)Nc1ncc(Cl)c(n1)N2)N[C@H]1CCN(C(=O)c2ccccc2)C1` [Example B170, N-[(3S)-1-Benzoylpyrrolidin-3-yl]-N′-[6-chloro-2,4,8,22-tetraazatetracyclo[14.3.1.1(3,7).1(9,13)]docosa-1(20),3(22),4,6,9(21),10,12,16,18-nonaen-12-yl]urea trifluoroacetate], for which the IC50 worked out at 34 nM in assay [1] (Table B1), 1.6 nM in assay [2] (Table B1), 228 nM in assay [4] (Table B1) and 17 nM in assay [5] (Table B1). Also, in assay [3] (setting [10]), the “ALK % of inhibition” value was 12%.
